Data reported in patent publication US20250090545A1, “METHODS AND COMPOSITIONS FOR TREATMENT OF PERIPHERAL NEUROPATHIES” (UNIVERSITY OF MANITOBA, priority 2013, published 2025).
Entries after “also recorded” stand apart in the source; their conditions may differ.

Legend:
[1] = tested on: STZ-induced diabetic Swiss Webster mice; assay: Topical atropine (eye or paw) in STZ-induced diabetic Swiss Webster mice; format: in vivo, mouse; conditions: 5 days/wk, 12 weeks
Description: Groups of adult Swiss Webster mice were made diabetic with STZ and then treated 5 days/wk with atropine delivered topically to one eye (2% solution) or topically to one paw (2% gel) for 12 weeks. Measurements were made on both the treated and untreated hind paw. Indices of large motor fiber function (MNCV; FIG. 21) and sensory sensory fiber function (paw thermal latency; FIG. 22) were measured and compared to those of age-matched control mice that were treated in an equivalent manner. […] The data shown in FIGS. 21 and 22 are group means±SEM with N=6-10/group. Significant differences were determined by unpaired t-test to compare control and diabetic animals under each condition (vehicle, atropine to the eye, atropine to the foot).

[2] = tested on: cultured adult rat sensory neurons; assay: Total neurite outgrowth in cultured adult sensory neurons; format: cell-based; conditions: for total neurite outgrowth: cultured adult sensory neurons from normal adult rodents
From the text: The fundamental hypothesis is that blocking endogenous cholinergic constraint using a muscarinic receptor antagonist will promote re-growth of neurons in patients with established peripheral neuropathy. This occurs via activation of AMPK and PGC-1α and the subsequent augmentation of mitochondrial function. This pathway comprises a proximal step involving M1 receptor antagonist-dependent activation of CaMKKβ (or CaMKK2). This hypothesis is supported by extensive preclinical data using in vitro and in vivo model systems. […] A specific requirement for M1 receptor antagonism is confirmed by the increased neurite outgrowth from sensory neurons derived from M1R KO mice.
The highly specific M1 receptor antagonist, MT7 (muscarinic toxin 7), enhanced neurite outgrowth in cultured adult rat sensory neurons (FIGS. 9(A), 9(B), 10). The data in FIG. 10 are means±SEM of 9 replicate cultures. Significant differences were determined by one-way ANOVA with Dunnett's post-hoc test.

db/db mice = assay: Topical oxybutynin in db/db mouse model of type 2 diabetes; format: in vivo
Description: The muscarinic receptor antagonist oxybutynin was tested for efficacy against a functional measure of sensory neuropathy in the db/db mouse model of type 2 diabetes (FIG. 15). Thermal latency was analyzed as taught by Calcutt et al. (2004, Prevention of sensory disorders in diabetic Sprague-Dawley rats by aldose reductase inhibition or treatment with ciliary neurotrophic factor. Diabetologia 47:718-24). […] Some diabetic mice were then treated with oxybutynin (Oxy: 2% in hydrogel) applied to the right paw for 20 min/day 5 days a week, while others were treated with hydrogel vehicle alone. […] Data are group mean±SEM of N=8-9/group.
IENF levels were quantified as taught by Beiswenger et al. (2008, Epidermal nerve fiber quantification in the assessment of diabetic neuropathy. Acta Histochem. 110:351-63). The data shown in FIG. 16(A) are group mean±SEM of N=6-8/group. Significant differences were determined with a oneway ANOVA followed by Dunnett's post-hoc test. […] After 8 weeks of topical oxybutynin treatment, the eyes were assessed using corneal confocal microscopy as taught by Chen et al. (2013, Repeated monitoring of corneal nerves by confocal microscopy as an index of peripheral neuropathy in type-1 diabetic rodents and the effects of topical insulin. J. Periph. Nerv. Syst. 18;306-315).

[3] = tested on: STZ-induced diabetic Swiss Webster mice; assay: Systemic oxybutynin in STZ-induced diabetic Swiss Webster mice, thermal hypoalgesia; format: in vivo, mouse; conditions: 9 weeks after 8 weeks of untreated diabetes
PGC-1α = PGC-1α transcriptional activity, luciferase reporter in adult sensory neurons; format: cell-based, rat
Description: PGC-1α transcriptional activity was determined in dissociated adult sensory neurons derived from STZ-induced diabetic rats by transfection for two days with luciferase-based reporter plasmids by following the methods taught in the AMAXA® NUCLEOFECTOR® II Manual (www.amaxa.com; AMAX and NUCLEOFECTOR are registered trademarks of Amaxa GmBH Corp., Koln, Fed. Rep. Germany) and by Saleh et al. (2013, Ciliary neurotrophic factor activates NF-κB to enhance mitochondrial bioenergetics and prevent neuropathy in sensory neurons of streptozotocin-induced diabetic rodents. Neuropharmacology 65:65-75) (the luciferase-based reporter plasmids were a gift from Dr. Michael Czubryt, University of Manitoba).

[4] = tested on: AMP-activated protein kinase (AMPK); assay: AMPK phosphorylation (Western blot) in cultured adult sensory neurons; format: cell-based, rat; conditions: neurons from age-matched control rats
Description: Subsets of cultured adult sensory neurons derived from age-matched control rats or 3-5 month STZ-induced diabetic rats were treated with a 1.0 μM pirenzepine-HCl dosage. The first subset was processed immediately while the second, third and fourth subsets of the neurons from the control rats and the diabetic rats were processed after 15 min, after 30 min, and after 60 min respectively following treatment with pirenzepine. The cell cultures were lysed and then used to prepare Western blots which were then probed with antibodies against phosphorylated AMPK (P-AMPK), total AMPK (T-AMPK) and total ERK (T-ERK). […] Values are means±SEM, N=3/group. Statistical significance was analyzed using one-way ANOVA with Tukey's post-hoc test.

[5] = tested on: adult sensory neurons from normal rats; assay: Neurite outgrowth of sensory neurons exposed to paclitaxel or oxaliplatin; format: cell-based, rat; conditions: 24 hours; paclitaxel 0.1 or 0.3 μM, oxaliplatin 3.0 μM
Description: Adult sensory neurons from normal rats were cultured for 24 hours in the presence of(A) paclitaxel (PX; 0.1 μM or 0.3 μM), or (B) oxaliplatin (OX; 3.0 μM). From time of plating some cultures were treated with 0.1, 1.0 or 10 μM pirenzepine (PZ). Levels of total neurite outgrowth were determined and presented as means±SEM, N=6-8/group. Significant differences were assessed in(A) by t-test, and in(B) by one-way ANOVA with Dunnett's post-hoc test.

M1 receptor = biological target: T1, M1 receptor (Homo sapiens, UniProt P11229); conditions: cited from earlier work
T1 sequence (P11229 1-460): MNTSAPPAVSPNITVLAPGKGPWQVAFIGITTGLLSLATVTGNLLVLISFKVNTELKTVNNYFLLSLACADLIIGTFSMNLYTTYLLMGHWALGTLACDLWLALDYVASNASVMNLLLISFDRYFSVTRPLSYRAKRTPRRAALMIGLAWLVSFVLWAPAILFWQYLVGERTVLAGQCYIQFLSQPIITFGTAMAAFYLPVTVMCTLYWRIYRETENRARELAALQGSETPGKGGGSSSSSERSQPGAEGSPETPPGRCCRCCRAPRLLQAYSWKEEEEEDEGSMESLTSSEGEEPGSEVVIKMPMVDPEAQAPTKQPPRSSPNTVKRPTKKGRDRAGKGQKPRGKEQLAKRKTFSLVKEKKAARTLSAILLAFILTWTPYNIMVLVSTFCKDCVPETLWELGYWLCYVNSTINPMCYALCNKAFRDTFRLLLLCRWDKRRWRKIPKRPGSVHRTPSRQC

[6] = tested on: cultured adult rat sensory neurons; format: cell-based; conditions: gp120 24 hours; not shown
Description: To further extend our investigation of the actions of muscarinic receptor antagonists on nerve growth, cultured adult rat sensory neurons were treated for 24 hours with recombinant gp120, an external coat protein of HIV that causes toxicity to sensory neurons in HIV neuropathy (FIG. 24). This toxicity leads to axon degeneration and neuronal cell death. Cultures were treated with 1 μM pirenzpeine and total neurite outgrowth determined. […] Values are means±SEM. n=6.

adult Swiss Webster mice = assay: Corneal nerve occupancy by confocal microscopy in normal mice given MT7 eye drops; format: in vivo, mouse; conditions: daily eye drops; day 11 vs day 2, p<0.05
Description: To further extend our investigation of the actions of muscarinic receptor antagonists on nerve growth, we treated normal mice with the M1 receptor-specific antagonist MT7 by daily delivery to the eyes for 11 days and used confocal microscopy to provide a non-invasive and therefore iterative assessment of corneal nerve density.
A group (n=8) of adult Swiss Webster mice received daily treatment with MT7, which was given by eye drops (20 μl volume) in saline. Nerve occupancies in the sub-basal nerve plexus (SBNP 1-5) and upper stromal (Stroma 1-10) regions of the cornea were measured on day 2 and day 11 of treatment (FIG. 23). […] Data are group means (N=8)±SEM.

[7] = 2% solution topically to one eye
[8] = topical, 8 weeks, values not significantly different from controls

## CN1[C@@H]2CC[C@H]1C[C@@H](OC(=O)C(CO)c1ccccc1)C2 (stereo partly drawn) [atropine]
[1]; 2% gel topically to one paw
  large fiber MNCV: not different to controls
  paw thermal hypoalgesia (paw thermal latency): not different to controls
[1]; [7]
  large fiber MNCV: not different to controls
  paw thermal hypoalgesia (paw thermal latency): not different to controls

## CCN(CC)CC#CCOC(=O)C(O)(c1ccccc1)C1CCCCC1 (stereo not drawn) [oxybutynin, 4-dicthylaminobut-2-ynyl-2-cyclohexyl-2-hydroxy-2-phenyl-ethanoate]
[2]
  total neurite outgrowth: elevated
db/db mice; 2% in hydrogel to right paw 20 min/day, 5 days a week, 8 weeks, p<0.01 vs vehicle
  paw thermal hypoalgesia (thermal latency): reversed
db/db mice; topical oxybutynin
  time of treatment to reversal of thermal hypoalgesia: 4-8 weeks
db/db mice; [8]
  reduction in density of IENF in paw skin: attenuated
  reduction in nerve fiber occupancy in the cornea: attenuated
[3]; 3 mg/kg s.c.
  thermal hypoalgesia: able to reverse
[3]; 10 mg/kg s.c.
  thermal hypoalgesia: able to reverse

## c1cc(-c2cnn3cc(-c4ccc(OCCN5CCCCC5)cc4)cnc23)ccn1 [Compound C]
PGC-1α; 0.3μM co-treatment with MT7
  effect on MT7 stimulation of PGC-1α transcription: blocked

## O=C(O)c1ccc2c3c1cccc3c(=O)n1c3ccccc3nc21 [STO-609]
[2]; cultured adult rat sensory neurons
  effect on pirenzepine-induced neurite outgrowth: dose-dependently inhibited
[4]; 1.0μM
  effect on MT7-induced enhancement of AMPK phosphorylation: inhibited
  effect on pirenzepine-induced enhancement of AMPK phosphorylation: inhibited

## O=C1[O][Pt]2([NH][C@@H]3CCCC[C@H]3[NH]2)[O]C1=O [oxaliplatin]
[5]
  neurite outgrowth of sensory neurons exposed in vitro to the chemotherapeutic: reduced neurite outgrowth

B1: MT7: 64-66 amino acid protein derived from the African green mamba snake; most specific antagonist of the M1 receptor (protein, UniProt Q8QGR0 22-86, looked up)
Muscarinic toxin 7: LTCVKSNSIWFPTSEDCPDGQNLCFKRWQYISPRMYDFTRGCAATCPKAEYRDVINCCGTDKCNK
M1 receptor; allosteric site
  concentrations at which it binds to an allosteric site on the M1 receptor: low nanomolar
M1 receptor
  selectivity for M1 receptors over M2-M5: 10,000 fold
[2]
  total neurite outgrowth: enhanced; also recorded: dose-dependently elevated
[4]; MT7
  AMPK phosphorylation: enhancement
[6]
  level of protection from gp120 treatment: approximately 50%
Adult Swiss Webster mice
  nerve occupancy in the sub-basal nerve plexus (SBNP 1-5) of the cornea: increased significantly
  nerve occupancy in the upper stromal (Stroma 1-10) region of the cornea: increased significantly
PGC-1α; MT7 treatment, neurons from STZ-induced diabetic rats
  transcription of PGC-1α: activated
